Entries after “also recorded” stand apart in the source; their conditions may differ.

Test [1] has as its system T47D cells. The test is described as follows: Translation and degradation assays (3H-phenylalanine). It counts as cell-based, human. To be noted: control cells, 20-hour treatment. On the procedure:
FIGS. 4A-4F: Transient induction of PSMD2 shRNA is sufficient to promote resistance to proteasome inhibition. (FIG. 4A) Schematic representation of the experimental design. (FIG. 4B) T471) cells harboring a doxycycline-inducible PSMD2 shRNA were grown in the presence of in/nil doxycycline for 48 hours. Cells were then collected, washed and plated in the absence of doxycycline for 24 hours prior to exposure to increasing concentrations of bortezomib. Relative cell numbers were measured 3 days later. […] The proteasome complex levels and activity of the 20S proteasome were assessed by native gel electrophoresis. Loading controls were analyzed by immunoblot for PSMD2 and tubulin following SDS-PAGE. […] (FIG. 4E) The rate of degradation was analyzed in cells with reduced levels of PSMD2 (green bars) versus control (red bars) in the presence or absence of 10 nM bortezomib (treatment for 20 hours) by monitoring the release of H3-Phe in pre-labeled cells. (FIG. 4F) Rate of total protein synthesis was determined in cells with reduced levels of PSMD2 (green bars) versus control (red bars) in the presence or absence of 10 nM bortezomib (treatment for 20 hours) by measuring the rate of incorporation of 3H-phenylalanine for 1 hour. **p<0.01***p<0.001 […]

Test [2] concerns the target T1, FDX1 (Homo sapiens, UniProt P10109).
T1 construct: made in house
T1 sequence (P10109 62-184): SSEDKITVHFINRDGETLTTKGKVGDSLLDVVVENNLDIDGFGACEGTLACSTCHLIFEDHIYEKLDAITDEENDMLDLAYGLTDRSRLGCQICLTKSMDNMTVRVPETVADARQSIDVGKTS
The test is described as follows: In vitro Fe-S cluster assembly assay with reduced FDX1. The format is biochemical. To be noted: reduced FDX1 as reductant; 5x and 10x stoichiometry relative to ISCU and FDX1. The source says: Whether elesclomol can inhibit the functional activity of FDX1 in mediating the Fe—S cluster formation was also examined. […] (FIG. 47A) A “x5 concentration” as shown in FIGS. 47A-47C means that elesclomol (or isoform) was present at 5 times the concentration of the enzyme. The assay used in FIGS. 47A-47C is described in the paper Cai et al., Biochemistry, 2017, 56 (3), pp 487-499.
Fe—S clusters are generated from sulfur extracted from cysteine by the iron sulfur-cluster (ISC) core complex (NFS1-ISD11-Acp-ISCU)2 and iron. A reductant (FDX1 or FDX2) is required for Fc-S cluster biosynthesis (Lill and Muhlenhoff, 2006; Py and Barras, 2010) (FIG. 53A). […]
Protein Expression and Purification—Unlabeled samples of ISCU, unlabeled (NFS1-ISD11-Acp)2 (abbreviated as SDA), unlabeled and [U-^15N]-FDX1 (truncated first 61 amino acids) and unlabeled FDX2 were produced and purified as described previously (Cai et al., 2013; Cai et al., 2017a; Cai et al., 20176). […] The reduction of FDX1 or FDX2 was monitored by the color change from dark brown to light pink and by recording IN/vis spectra before and after reduction. […]
In vitro Fe—S cluster assembly assay—The in vitro Fe—S cluster assembly assays were carried out as follows. […] The growth of absorbance at 456 nm was used to monitor the assembly of [2Fe-2S] clusters.

In test [3] the target is T1, FDX1. The test is described as follows: Electron transfer assay, reduced FDX1 to SDA complex. It counts as biochemical. To be noted: upon addition of cysteine. From the text: Fe—S clusters are generated from sulfur extracted from cysteine by the iron sulfur-cluster (ISC) core complex (NFS1-ISD11-Acp-ISCU)2 and iron. A reductant (FDX1 or FDX2) is required for Fc-S cluster biosynthesis (Lill and Muhlenhoff, 2006; Py and Barras, 2010) (FIG. 53A). To investigate the effect of elesclomol on mitochondrial Fe—S cluster biosynthesis, we utilized in vitro Fe—S cluster assembly assays. […] As further confirmation, we examined the effect of elesclomol on electron transfer from reduced FDX1 to the ISC core complex upon the addition of cysteine.
Electron transfer assay—Electron transfer from re-FDX1 SDA complex was monitored as follows. 25 μM reduced FDX1 was mixed with 25 μM SDA, and 125 μM L-cysteine was added to initiate the reaction. To test the effect of the drug, samples contained 25-500 μM elesclomol (1-20× relative to FDX1). Samples were then transferred to 1 cm path-length quartz cuvettes, sealed with rubber septa, and UV/vis spectra were collected at 25° C. The growth of absorbance at 456 nm was used to monitor the oxidation of reduced FDX1 as a result of electron transfer to SDA.

Regarding `CC(C)C[C@H](NC(=O)[C@H](Cc1ccccc1)NC(=O)c1cnccn1)B(O)O` [bortezomib], in test [1], the “rate of protein degradation” value is on record as “sharply decreased” and the “rate of protein synthesis” value was “sharply decreased”.

For the molecule `CN(NC(=O)CC(=O)NN(C)C(=S)c1ccccc1)C(=S)c1ccccc1` [elesclomol], the “inhibition of in vitro Fe-S cluster assembly” value in test [2] is “sufficient to induce an inhibitory effect; also recorded: progressively inhibited”. Besides, the “inhibition of electron transfer from reduced FDX1 to the NFS1 component of the ISC core complex” value in test [3] is reported as “progressive inhibition of electron transfer”.

Values taken from patent US20180353445A1, “METHODS AND COMPOSITIONS RELATING TO PROTEASOME INHIBITOR RESISTANCE” (Whitehead Institute for Biomedical Research, priority 2017, published 2018).
